Measured values taken from PubChem BioAssay AID330 (DTP/NCI, 2004).
Where “and” joins values, the source holds several entries; their conditions need not be identical. Equal entries are not always repeated. Inconclusive results and toxic doses are left out. How the source made its calls: active means survival T/C of 150% or more; inactive means T/C below 125% in these data.

System: P388 leukemia ip, CD2F1 mice, survival T/C
Assay: NCI In Vivo Anticancer Drug Screen. Data for tumor model P388 Leukemia (intraperitoneal) in CD2F1 (CDF1) mice
Settings: endpoint: median survival time, higher = longer survival
Procedure, shortened: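 Mice carrying the transplanted tumor received test compound or vehicle. Survival was recorded in each group, and the value is the treated-group measurement divided by that of the vehicle-treated control group.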

[1] = dose: 50.0 mg/kg/injection, schedule: Q01DX005 (ip), vehicle: Klucel (hydroxypropylcellulose) (HPC)
[2] = dose: 100.0 mg/kg/injection, schedule: Q01DX005 (ip), vehicle: Klucel (hydroxypropylcellulose) (HPC)
[3] = dose: 200.0 mg/kg/injection, schedule: Q01DX005 (ip), vehicle: Klucel (hydroxypropylcellulose) (HPC)
[4] = dose: 60.0 mg/kg/injection, schedule: Q01DX005 (ip), vehicle: saline with Tween-80
[5] = dose: 120.0 mg/kg/injection, schedule: Q01DX005 (ip), vehicle: saline with Tween-80
[6] = dose: 240.0 mg/kg/injection, schedule: Q01DX005 (ip), vehicle: saline with Tween-80
[7] = dose: 50.0 mg/kg/injection, schedule: Q01DX009 (ip), vehicle: saline with Tween-80
[8] = dose: 100.0 mg/kg/injection, schedule: Q01DX009 (ip), vehicle: saline with Tween-80
[9] = dose: 200.0 mg/kg/injection, schedule: Q01DX009 (ip), vehicle: saline with Tween-80
[10] = dose: 100.0 mg/kg/injection, schedule: Q04DX003 (ip), vehicle: saline with Tween-80
[11] = dose: 200.0 mg/kg/injection, schedule: Q04DX003 (ip), vehicle: saline with Tween-80

Measured: T/C

CC1(C)CC(Nc2ncnc3c2ncn3C2OC(CO)C(O)C2O)CC(C)(C)N1O (configuration not stated)
inactive: dose: 50.0 mg/kg/injection, schedule: Q01DX009 (ip), vehicle: saline 96 % of control | dose: 100.0 mg/kg/injection, schedule: Q01DX009 (ip), vehicle: saline 95 % of control | dose: 200.0 mg/kg/injection, schedule: Q01DX009 (ip), vehicle: saline 94 % of control

Cc1ccsc1C(=O)c1ccccc1[N+](=O)[O-]
inactive: [1] 94 % of control | [2] 94 % of control | [3] 100 % of control

N#CC1=CCc2ccccc2N1C(=O)Oc1ccccc1
inactive: [4] 97 % of control | [5] 88 % of control | [6] 88 % of control

Nc1ncnc2nc(-c3ccccc3)[nH]c12
inactive: [4] 102 % of control | [5] 100 % of control | [6] 105 % of control

COC(=O)Nc1nc2ccc(C(=O)OC)cc2[nH]1
inactive: dose: 100.0 mg/kg/injection, schedule: Q04DX003 (ip), vehicle: saline 102 % of control | dose: 200.0 mg/kg/injection, schedule: Q04DX003 (ip), vehicle: saline 103 % of control | dose: 400.0 mg/kg/injection, schedule: Q04DX003 (ip), vehicle: saline 103 % of control

NC1CCC(O)CC1C(=O)O (configuration not stated)
inactive: dose: 50.0 mg/kg/injection, schedule: Q01DX005 (ip), vehicle: saline with Tween-80 99 % of control | dose: 100.0 mg/kg/injection, schedule: Q01DX005 (ip), vehicle: saline with Tween-80 103 % of control | dose: 200.0 mg/kg/injection, schedule: Q01DX005 (ip), vehicle: saline with Tween-80 86 % of control

CN1C(=O)NC(=O)C(C)(C2(Br)CCCCC2)C1=O (configuration not stated)
inactive: dose: 100.0 mg/kg/injection, schedule: Q01DX001 (ip), vehicle: Klucel (hydroxypropylcellulose) (HPC) 106 % of control | dose: 200.0 mg/kg/injection, schedule: Q01DX001 (ip), vehicle: Klucel (hydroxypropylcellulose) (HPC) 99 % of control | dose: 400.0 mg/kg/injection, schedule: Q01DX001 (ip), vehicle: Klucel (hydroxypropylcellulose) (HPC) 99 % of control

CCOC(=O)[C@]1(Br)CC[C@]1(Br)C(=O)OCC
inactive: [7] 106 % of control and 121 % of control | [8] 112 % of control and 114 % of control | [9] 117 % of control and 122 % of control | dose: 400.0 mg/kg/injection, schedule: Q01DX009 (ip), vehicle: saline with Tween-80 123 % of control

Cc1cc(N)c(C)c([N+](=O)[O-])c1
inactive: dose: 50.0 mg/kg/injection, schedule: Q04DX003 (ip), vehicle: saline with Tween-80 95 % of control | [10] 91 % of control | [11] 100 % of control

CC1(C)Cc2[nH]c3ccccc3c2C(C)(C)N1
inactive: [4] 105 % of control and 99 % of control | [5] 100 % of control | [6] 91 % of control

CCOC(=O)C(CC)C1=CCCCC1 (configuration not stated)
inactive: [7] 109 % of control | [8] 118 % of control | [10] 109 % of control | [9] 118 % of control | [11] 100 % of control | dose: 400.0 mg/kg/injection, schedule: Q04DX003 (ip), vehicle: saline with Tween-80 113 % of control

Cc1s\c(=N/N=N/N=c2\sc(C)c(C)n2Cc2ccccc2)n(Cc2ccccc2)c1C
inactive: [4] 103 % of control | [5] 97 % of control | [6] 103 % of control

COc1cccc([N+]([O-])=NC#N)c1
inactive: dose: 12.5 mg/kg/injection, schedule: Q04DX003 (ip), vehicle: Klucel (hydroxypropylcellulose) (HPC) 105 % of control | dose: 25.0 mg/kg/injection, schedule: Q04DX003 (ip), vehicle: Klucel (hydroxypropylcellulose) (HPC) 115 % of control | dose: 50.0 mg/kg/injection, schedule: Q04DX003 (ip), vehicle: Klucel (hydroxypropylcellulose) (HPC) 107 % of control and 90 % of control

O=C1c2ccccc2-c2ccc(NC(=O)C34CC5CC(CC(C5)C3)C4)cc21
inactive: [1] 86 % of control | [2] 87 % of control | [3] 90 % of control

O=S(=O)(O)CNc1cccc(Cl)c1
inactive: [7] 106 % of control | [8] 95 % of control | [9] 98 % of control

S=C(NCCl)NCc1ccccc1
inactive: [1] 105 % of control | [2] 100 % of control | [3] 105 % of control
